Data: ChEMBL document CHEMBL1201862, “PubChem BioAssay data set” (2004)
Calls of active or inactive are those of the source.

Tests used:
[1] = biological target: Voltage-gated inwardly rectifying potassium channel KCNH2 (Homo sapiens, UniProt Q12809); conditions: Potency;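 further: confirmatory quantitative high-throughput screen measuring inhibition of hERG channel activity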
[2] = biological target: Glyceraldehyde-3-phosphate dehydrogenase (Homo sapiens, UniProt P04406)
[3] = biological target: T1, Alkaline phosphatase, tissue-nonspecific isozyme (Homo sapiens, UniProt P05186); assay: human TNAP enzyme inhibitors, SAR follow-up, biochemical, luminescent, dose response (AID 1056)
T1 sequence (P05186 whole entry): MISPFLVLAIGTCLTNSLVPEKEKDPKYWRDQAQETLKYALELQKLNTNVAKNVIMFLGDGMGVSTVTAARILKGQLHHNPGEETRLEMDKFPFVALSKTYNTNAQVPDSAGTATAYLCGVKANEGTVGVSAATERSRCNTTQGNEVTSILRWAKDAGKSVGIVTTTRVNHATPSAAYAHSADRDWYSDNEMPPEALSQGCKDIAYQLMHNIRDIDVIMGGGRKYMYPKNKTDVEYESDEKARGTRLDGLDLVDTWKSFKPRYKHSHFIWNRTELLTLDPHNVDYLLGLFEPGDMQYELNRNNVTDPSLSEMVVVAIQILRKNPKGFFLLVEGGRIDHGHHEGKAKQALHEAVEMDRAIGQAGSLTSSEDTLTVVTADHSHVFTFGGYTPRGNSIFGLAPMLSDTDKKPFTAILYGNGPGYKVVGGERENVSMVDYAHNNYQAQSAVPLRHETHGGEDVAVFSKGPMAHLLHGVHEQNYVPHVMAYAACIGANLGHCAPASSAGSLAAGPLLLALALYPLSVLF

Beta-galactosidase = Beta-galactosidase (Escherichia coli, UniProt Q8VNN2); assay: PubChem AID 485352; assay type: functional
[4] = biological target: T2, Type-1 angiotensin II receptor (Homo sapiens, UniProt P30556); assay: AT1 receptor antagonists, dose response, selectivity assay for APJ receptor antagonist project, cell-based, uHTS hits (AID 463214); assay type: functional;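 further: antagonist potency against angiotensin II stimulated AT1 response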
T2 sequence (P30556 whole entry): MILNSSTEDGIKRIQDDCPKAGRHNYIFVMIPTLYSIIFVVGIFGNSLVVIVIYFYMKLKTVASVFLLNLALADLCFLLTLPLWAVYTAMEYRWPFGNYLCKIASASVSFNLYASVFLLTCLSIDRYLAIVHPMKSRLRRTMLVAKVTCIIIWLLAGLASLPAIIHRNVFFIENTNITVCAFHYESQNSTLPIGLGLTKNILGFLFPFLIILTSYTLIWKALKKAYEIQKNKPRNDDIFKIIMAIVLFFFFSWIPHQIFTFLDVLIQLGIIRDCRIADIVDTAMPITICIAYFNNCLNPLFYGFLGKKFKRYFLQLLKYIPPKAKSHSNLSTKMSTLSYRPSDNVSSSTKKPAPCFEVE

[5] = biological target: DNA dC->dU-editing enzyme APOBEC-3A (Homo sapiens, UniProt P31941); assay: Dose Response confirmation of small molecule APOBEC3A DNA Deaminase Inhibitors via a fluorescence-based single-stranded DNA deaminase assay. [Related pubchem assays (depositor defined):AID493011, AID493024]; assay type: functional
[6] = biological target: DNA dC->dU-editing enzyme APOBEC-3G (Homo sapiens, UniProt Q9HC16); assay type: functional;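 further: Dose-response counterscreen measuring inhibition of APOBEC3G DNA deaminase activity, run while confirming APOBEC3A inhibitors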
[7] = insulin promoter down-regulators in MIN6 cells, imaging, high-content screening, mouse beta cells (AID 1628); assay type: functional
[8] = cytotoxicity in MIN6 insulinoma cells, dose response, cytotoxicity control, cell-based, mouse insulinoma (AID 2122); assay type: functional;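 further: confirmatory high-throughput counterscreen run to flag cytotoxic compounds; mouse MIN-6 beta cells carrying an insulin promoter eGFP reporter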
CAAX prenyl protease 2 = biological target: T3, CAAX prenyl protease 2 (Homo sapiens, UniProt Q9Y256); assay: human Rce1 protease inhibitors, dose response, biochemical, yeast membranes, quenched-peptide fluorescence, cherry-pick (AID 588849)
T3 sequence (Q9Y256 whole entry): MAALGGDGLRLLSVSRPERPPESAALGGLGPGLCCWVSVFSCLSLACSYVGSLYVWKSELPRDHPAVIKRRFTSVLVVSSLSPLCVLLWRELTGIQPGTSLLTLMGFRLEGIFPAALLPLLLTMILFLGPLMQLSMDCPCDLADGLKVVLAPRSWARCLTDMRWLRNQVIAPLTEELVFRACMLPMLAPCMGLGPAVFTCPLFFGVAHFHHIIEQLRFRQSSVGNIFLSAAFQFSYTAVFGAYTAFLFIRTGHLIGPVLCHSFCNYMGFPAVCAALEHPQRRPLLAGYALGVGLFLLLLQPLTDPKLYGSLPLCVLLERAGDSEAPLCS

[9] = biological target: T4, Corticotropin-releasing factor receptor 2/Corticotropin-releasing factor-binding protein (Homo sapiens, UniProt P24387+Q13324); assay: Dose Response confirmation of uHTS hits for small molecule antagonists of the CRF-binding protein and CRF-R2 receptor complex.; assay type: functional; conditions: read-out: IC50_Mean
T4 sequence (Q13324 whole entry): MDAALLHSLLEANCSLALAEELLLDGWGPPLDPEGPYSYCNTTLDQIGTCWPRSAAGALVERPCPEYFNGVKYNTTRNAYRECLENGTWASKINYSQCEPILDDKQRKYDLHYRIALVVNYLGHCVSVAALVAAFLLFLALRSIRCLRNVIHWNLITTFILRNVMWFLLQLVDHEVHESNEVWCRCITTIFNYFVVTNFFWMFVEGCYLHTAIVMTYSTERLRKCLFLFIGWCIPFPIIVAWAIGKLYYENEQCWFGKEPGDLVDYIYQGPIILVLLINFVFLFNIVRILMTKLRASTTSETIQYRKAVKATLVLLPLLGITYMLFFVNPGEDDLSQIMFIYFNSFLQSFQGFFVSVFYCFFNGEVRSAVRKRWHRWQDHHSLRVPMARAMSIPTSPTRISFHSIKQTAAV
T4 sequence (P24387 whole entry): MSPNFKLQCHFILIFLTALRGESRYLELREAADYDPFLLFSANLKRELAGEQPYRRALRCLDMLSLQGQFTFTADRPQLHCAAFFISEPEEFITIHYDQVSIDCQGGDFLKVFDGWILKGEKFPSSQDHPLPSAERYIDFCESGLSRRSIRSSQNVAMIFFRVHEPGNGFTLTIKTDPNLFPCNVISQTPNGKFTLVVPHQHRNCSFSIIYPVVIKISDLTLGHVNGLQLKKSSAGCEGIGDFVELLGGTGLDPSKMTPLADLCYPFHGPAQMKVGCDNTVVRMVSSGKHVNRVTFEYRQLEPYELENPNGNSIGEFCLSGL

[10] = biological target: T4, Corticotropin-releasing factor receptor 2/Corticotropin-releasing factor-binding protein; assay: activators of CRF receptor 2 with binding protein – uHTS hits, confirmation (AID 602473); assay type: functional; conditions: read-out: EC50_Mean
[11] = growth induction of Burl-1 ts yeast mutant, dose response, counter-screen for SUMOylation pathway inhibitor project, whole organism, S. cerevisiae, luminescence (AID 463199); assay type: functional
[12] = biological target: T5, Carboxy-terminal domain RNA polymerase II polypeptide A small phosphatase 1 (Homo sapiens, UniProt Q9GZU7); assay: inhibitors of CTDSP1, concentration-response testing, biochemical assay, absorbance-based, actives from ultra-high-throughput screening (AID 540297); assay type: functional
T5 sequence (Q9GZU7 whole entry): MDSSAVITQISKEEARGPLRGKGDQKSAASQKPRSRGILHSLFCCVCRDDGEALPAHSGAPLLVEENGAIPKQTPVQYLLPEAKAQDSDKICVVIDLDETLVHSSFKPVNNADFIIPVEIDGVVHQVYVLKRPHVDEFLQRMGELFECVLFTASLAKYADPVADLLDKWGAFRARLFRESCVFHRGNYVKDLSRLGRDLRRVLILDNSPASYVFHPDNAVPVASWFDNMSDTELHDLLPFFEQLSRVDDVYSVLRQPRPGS

DNA dC->dU-editing enzyme APOBEC-3G, sequence (Q9HC16 whole entry): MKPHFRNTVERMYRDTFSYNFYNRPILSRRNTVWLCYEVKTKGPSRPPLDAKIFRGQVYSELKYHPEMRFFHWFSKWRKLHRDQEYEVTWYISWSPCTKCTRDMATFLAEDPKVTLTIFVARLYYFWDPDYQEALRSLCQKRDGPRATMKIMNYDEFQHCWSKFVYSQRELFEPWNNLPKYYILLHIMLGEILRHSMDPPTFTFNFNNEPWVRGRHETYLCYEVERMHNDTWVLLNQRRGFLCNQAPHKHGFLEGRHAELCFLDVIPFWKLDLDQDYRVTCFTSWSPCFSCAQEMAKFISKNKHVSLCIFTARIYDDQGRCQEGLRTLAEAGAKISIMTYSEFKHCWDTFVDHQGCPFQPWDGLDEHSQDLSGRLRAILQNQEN
DNA dC->dU-editing enzyme APOBEC-3A, sequence (P31941 whole entry): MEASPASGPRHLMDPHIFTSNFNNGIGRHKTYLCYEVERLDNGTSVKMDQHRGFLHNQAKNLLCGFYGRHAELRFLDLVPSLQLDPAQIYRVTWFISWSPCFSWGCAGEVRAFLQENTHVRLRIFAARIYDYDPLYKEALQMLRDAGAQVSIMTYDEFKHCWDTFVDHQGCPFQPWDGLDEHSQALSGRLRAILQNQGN
Voltage-gated inwardly rectifying potassium channel KCNH2, sequence (Q12809 whole entry): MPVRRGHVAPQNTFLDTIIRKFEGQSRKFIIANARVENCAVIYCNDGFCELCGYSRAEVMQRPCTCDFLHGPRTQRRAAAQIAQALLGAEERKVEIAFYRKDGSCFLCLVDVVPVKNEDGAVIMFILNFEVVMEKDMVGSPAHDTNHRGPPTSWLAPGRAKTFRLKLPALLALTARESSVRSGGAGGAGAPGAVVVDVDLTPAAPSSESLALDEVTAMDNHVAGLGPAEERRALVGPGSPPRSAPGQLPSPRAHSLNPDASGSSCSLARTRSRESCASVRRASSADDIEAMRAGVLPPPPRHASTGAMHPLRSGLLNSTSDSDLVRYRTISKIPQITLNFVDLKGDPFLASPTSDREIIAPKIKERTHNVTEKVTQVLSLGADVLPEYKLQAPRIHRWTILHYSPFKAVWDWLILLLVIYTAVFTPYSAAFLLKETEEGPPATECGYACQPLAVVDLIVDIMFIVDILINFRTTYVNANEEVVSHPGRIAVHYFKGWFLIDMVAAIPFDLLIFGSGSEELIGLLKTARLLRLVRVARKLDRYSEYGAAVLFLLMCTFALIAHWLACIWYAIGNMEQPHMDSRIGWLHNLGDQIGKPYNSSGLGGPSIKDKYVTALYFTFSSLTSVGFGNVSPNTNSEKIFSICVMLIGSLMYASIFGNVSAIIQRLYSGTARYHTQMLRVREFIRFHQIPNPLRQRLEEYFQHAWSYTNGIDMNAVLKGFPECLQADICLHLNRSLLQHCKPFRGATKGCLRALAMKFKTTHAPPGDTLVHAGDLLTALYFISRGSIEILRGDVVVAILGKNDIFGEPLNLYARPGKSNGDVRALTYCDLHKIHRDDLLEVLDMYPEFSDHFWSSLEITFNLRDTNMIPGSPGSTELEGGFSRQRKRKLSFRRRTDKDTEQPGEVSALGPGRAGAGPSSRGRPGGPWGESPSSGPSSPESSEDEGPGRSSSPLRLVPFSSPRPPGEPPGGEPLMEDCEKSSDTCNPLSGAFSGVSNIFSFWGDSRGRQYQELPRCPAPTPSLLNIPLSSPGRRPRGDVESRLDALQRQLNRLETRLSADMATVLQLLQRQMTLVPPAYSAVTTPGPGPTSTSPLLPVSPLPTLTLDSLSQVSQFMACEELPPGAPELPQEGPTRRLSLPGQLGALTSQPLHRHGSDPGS
Beta-galactosidase, sequence (Q8VNN2 whole entry): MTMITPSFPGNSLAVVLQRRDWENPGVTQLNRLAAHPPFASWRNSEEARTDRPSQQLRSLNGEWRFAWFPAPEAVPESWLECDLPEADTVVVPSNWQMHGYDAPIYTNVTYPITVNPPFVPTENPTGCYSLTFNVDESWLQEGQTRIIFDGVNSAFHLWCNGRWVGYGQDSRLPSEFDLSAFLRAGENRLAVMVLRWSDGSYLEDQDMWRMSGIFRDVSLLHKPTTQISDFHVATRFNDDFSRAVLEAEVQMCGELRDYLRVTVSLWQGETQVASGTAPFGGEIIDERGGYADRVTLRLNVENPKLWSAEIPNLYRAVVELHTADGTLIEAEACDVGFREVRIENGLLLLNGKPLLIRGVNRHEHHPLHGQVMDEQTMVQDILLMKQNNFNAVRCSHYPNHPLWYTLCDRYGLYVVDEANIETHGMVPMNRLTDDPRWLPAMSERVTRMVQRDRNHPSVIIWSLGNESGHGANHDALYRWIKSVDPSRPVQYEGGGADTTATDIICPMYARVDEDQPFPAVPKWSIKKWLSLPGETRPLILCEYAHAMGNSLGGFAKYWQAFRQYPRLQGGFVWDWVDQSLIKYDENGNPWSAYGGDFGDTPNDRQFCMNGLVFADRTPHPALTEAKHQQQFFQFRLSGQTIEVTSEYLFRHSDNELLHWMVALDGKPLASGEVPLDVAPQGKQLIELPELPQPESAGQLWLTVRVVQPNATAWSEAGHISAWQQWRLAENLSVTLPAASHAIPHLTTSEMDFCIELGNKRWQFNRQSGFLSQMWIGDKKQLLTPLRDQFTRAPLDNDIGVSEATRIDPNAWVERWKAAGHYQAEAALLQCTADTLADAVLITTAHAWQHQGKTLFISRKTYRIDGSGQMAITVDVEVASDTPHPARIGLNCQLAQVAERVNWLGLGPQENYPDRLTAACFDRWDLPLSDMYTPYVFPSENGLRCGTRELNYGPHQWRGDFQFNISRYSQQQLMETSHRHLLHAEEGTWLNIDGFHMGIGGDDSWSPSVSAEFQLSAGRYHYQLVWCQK
Glyceraldehyde-3-phosphate dehydrogenase, sequence (P04406 whole entry): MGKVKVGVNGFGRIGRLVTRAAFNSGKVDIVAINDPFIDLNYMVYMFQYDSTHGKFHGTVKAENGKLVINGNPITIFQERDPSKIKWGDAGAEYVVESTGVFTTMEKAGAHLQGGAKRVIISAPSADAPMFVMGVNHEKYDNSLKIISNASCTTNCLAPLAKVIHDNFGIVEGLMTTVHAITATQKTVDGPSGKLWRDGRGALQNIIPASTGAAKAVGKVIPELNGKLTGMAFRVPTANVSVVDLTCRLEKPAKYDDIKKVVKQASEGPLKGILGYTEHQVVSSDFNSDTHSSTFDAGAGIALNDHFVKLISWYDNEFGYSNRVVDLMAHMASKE

For CC(C)C[C@H](N)CSSC[C@@H](N)CC(C)C, the AC50 [1] was 35.5 µM (inconclusive).

With O=C1C(Cl)=C(Cl)C(=O)N1c1nnc(Cc2ccccc2)[nH]1 the IC50 [2] was > 100 µM (not active) and the IC50 [3] was 3.24 µM (active).

For COc1ccc(C(=O)CNc2cccc(F)c2)cc1, the EC50 (Beta-galactosidase) was > 40 µM (inactive) and the IC50 [4] was 28 µM (not active).

With COc1ccc(N2CC(C(=O)NCc3ccco3)CC2=O)cc1 (centres undefined) the IC50 [5] was 39.6 µM (active) and the IC50 [6] was 21.2 µM (active).

With Cc1ccc(-n2c(SCC(=O)NCC3CCCO3)nc3nnc(C)c-3c2N)cc1Cl (centres undefined) the IC50 [7] was 2.21 µM (active) and the IC50 [8] was 4.6 µM (active).

With Cc1csc2nc(=O)c3ccccc3n12 the AC50 (CAAX prenyl protease 2) was 63 µM (active).

For CS(=O)(=O)Nc1ccccc1C(=O)NCc1ccccc1Cl, the AC50 (CAAX prenyl protease 2) was 12.8 µM (active), the IC50 [9] was > 47.1 µM (inactive) and the EC50 [10] was > 53 µM (inactive).

With CC(=O)c1cccc(CN2CCCC(N3CCN(c4ccccc4F)CC3)C2)c1 (centres undefined) the AC50 [11] was 49.9 µM (active).

With Cc1cc(C(=O)NCc2ccc(C(=O)O)o2)c(C)o1 the IC50 [5] was 31 µM (active), the IC50 [6] was 45.9 µM (active) and the IC50 [12] was 4.04 µM (active).

In the case of Cc1ccc(Cn2cnc3ccccc32)cc1, the IC50 [7] was 4.89 µM (active) and the IC50 [8] was 4.02 µM (active).
